Measured values reported in ChEMBL document CHEMBL3832549, “DailyMed|setid=7633c9b3-dfb5-446f-a260-e44b6e48afa2 | BUDESONIDE- budesonide capsule|Carilion Materials Management”.

How the values were obtained:
[1] = (§1) Evaluation of pharmacokinetic parameters for Budesonide following single oral administration of Budesonide capsules (enteric coated) to healthy subjects and/or patients with Crohn's disease.; format: ADME, organism-based; design: dose 9 mg, route oral; conditions: human, in vivo, dosed compound id 9, dosed compound name BUDESONIDE, regimen Single dose, tissue Plasma
Homo sapiens = experiment: as §1; format: ADME, organism-based; design: dose 9 mg, route oral; conditions: in vivo, po, dosed compound id 9, dosed compound name BUDESONIDE, gender male and female, regimen Single dose, tissue Plasma
[2] = po, 9 mg, gender male and female

Compound: CCCC1O[C@@H]2C[C@H]3[C@@H]4CCC5=CC(=O)C=C[C@]5(C)[C@H]4[C@@H](O)C[C@]3(C)[C@]2(C(=O)CO)O1 (stereo not given in full) [BUDESONIDE]
- Tmax ([1]; 9 mg, route oral): 0.5 to 10 h
- AUC [1, 2]: 0.03 µM·h
- Cmax [1, 2]: 5 nM
- fraction unbound ([1]; po, at 9 mg, gender male and female, route oral, read-out: Protein binding): 0.1 to 0.15
- Vd (Homo sapiens): 2.2 to 3.9 L/kg
